“Also recorded” adds a separate entry of the source.
What was measured:
[1] = system: p62-positive aggregates in hippocampus; experiment: p62-positive aggregates in hippocampus of aging mice after long-term treatment in drinking water; type: in vivo, mouse
Protocol: Female C57BL6 mice received apocynin (50 mg/kg) or C3 (1 mg/kg/day) in their water from 12-17 mos of age, then perfused. Fixed brain were sectioned, and immunostained for p62. Confocal images were analyzed for 6 hippocampi/three sections per mouse, 4 mice per group. To quantify the p62-containing aggregates, aggregates were individually circled in the depicted region by a blinded investigator, and aggregate areas measured using ImageJ. Areas covered by aggregates, and number of clusters, are shown. Mean±SEM, *p<0.05, ***p<0.001, Mann-Whitney Rank Sum test. Animal studies were approved by the Animal Care Program at the University of California, San Diego, and Vanderbilt University Medical Center and are in accordance with the PHS Guide for the Care and Use of Laboratory Animals, USDA Regulations, and the AVMA Panel on Euthanasia. Young (3 to 5 month) and old (17 to 27 month) C57BL/6 mice, Tam-Thy1-YFP-Crc, tdTomato or 24 month old GFAP/GFP transgenic mice (JAX, 010835) were used for experiments. Lines which have the Tam-Thy1-YFP-Cre express both the Cre recombinase and YFP under control of the Thy1 promoter, which drives expression in a majority of hippocampal and cortical excitatory neurons, but not inhibitory neurons. Tam-Thy1-YFP-Cre:Stat3flox/flox (TF) mice have been generated, and have also been crossed with the Rosa26-tdTomato reporter mouse line to produce Tam-Thy1-YFP-Cre:Stat3flox/flox:tdTom (TFTD) mice. These reporter mice will express tdTom fluorescence in response to tamoxifen. […] The sections were kept in 30% sucrose, 30% ethylene glycol, and 1% PVP-40 at −20° C. until they were ready to be processed for immunostaining. […] With HRP-conjugated secondary antibodies, fluorescence was developed with fluorescein or cyanine 3 TSA amplification systems. […] Images were then analyzed and processed using Metamorph or Fiji software. To quantify the clusters of p62-containing aggregates, images were taken for 6 hippocampal regions from three sections per mouse, with 4 mice for each group. […]

[2] = system: lamp1-positive lysosomes in neurons; experiment: intracellular lysosome size in neurons of aged mice (lamp1 and CatD immunostaining); type: in vivo, mouse; conditions: aged mice treated with apocynin compared to water
From the text: Brain sections from 5 month and 20 month old female mice were immunostained with antibodies against lamp1 and parvalbumin (PV), chosen to allow lysosomes in individual neurons to be analyzed. In old versus young animals, lamp1-labeled lysosomes are larger in both PV neurons as well as surrounding pyramidal neurons. Lysosomes in PV neurons were quantified in 1 μm thick optical sections with ImageJ using Analyze Particles function; n=8 young, n=7 old. *p<0.001, Mann-Whitney Rank Sum test.
Mice were treated with apocynin in drinking water (initial dose 5 mg/kg and then ramping up to 100 mg/kg) beginning at 12 months old for 5 months. […]
An antigen retrieval method was performed on the sections for most antigens by heating in 10 mM citrate buffer (pH 6.0) for 10 minutes at 90° C. […] With HRP-conjugated secondary antibodies, fluorescence was developed with fluorescein or cyanine 3 TSA amplification systems. […]
Images were captured using Zeiss LSM 510 or LSM 810 multiphoton laser confocal microscopes. […] Images were then analyzed and processed using Metamorph or Fiji software. To quantify the clusters of p62-containing aggregates, images were taken for 6 hippocampal regions from three sections per mouse, with 4 mice for each group. Hippocampal regions were divided into different subregions, and p62 clusters were counted. […]

lysosomal v-ATPase = lysosomal v-ATPase (Homo sapiens, UniProt P27449); conditions: direct inhibition of lysosome acidification; cited from earlier work
Chain of lysosomal v-ATPase (P27449 whole entry): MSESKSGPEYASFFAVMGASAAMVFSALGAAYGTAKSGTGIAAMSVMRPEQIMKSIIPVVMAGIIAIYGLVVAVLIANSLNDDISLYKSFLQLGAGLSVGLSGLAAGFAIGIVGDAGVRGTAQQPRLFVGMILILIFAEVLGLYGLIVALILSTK
Chain of lysosomal v-ATPase (P38606 whole entry partner): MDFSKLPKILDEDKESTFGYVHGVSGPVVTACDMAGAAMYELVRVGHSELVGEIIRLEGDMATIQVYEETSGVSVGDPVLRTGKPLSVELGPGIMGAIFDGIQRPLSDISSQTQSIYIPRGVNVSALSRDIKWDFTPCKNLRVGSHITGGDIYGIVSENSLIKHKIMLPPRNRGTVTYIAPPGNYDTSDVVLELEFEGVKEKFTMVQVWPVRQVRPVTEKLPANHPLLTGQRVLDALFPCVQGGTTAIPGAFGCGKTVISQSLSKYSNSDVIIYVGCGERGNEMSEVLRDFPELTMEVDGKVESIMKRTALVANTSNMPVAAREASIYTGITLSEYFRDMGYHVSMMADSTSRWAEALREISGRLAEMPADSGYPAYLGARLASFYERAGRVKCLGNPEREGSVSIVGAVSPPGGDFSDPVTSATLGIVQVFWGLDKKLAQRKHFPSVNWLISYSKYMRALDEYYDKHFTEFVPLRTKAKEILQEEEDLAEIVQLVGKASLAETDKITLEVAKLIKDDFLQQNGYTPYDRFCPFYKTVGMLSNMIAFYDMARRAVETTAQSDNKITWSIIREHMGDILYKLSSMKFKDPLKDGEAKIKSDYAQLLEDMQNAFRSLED

mouse cortical cultures = experiment: lysosome degradation of proteins in mouse cortical cultures exposed to IL-6; type: cell-based
Protocol: Also, IL-6 can induce expression of inflammatory mediators, including TNFα, IL-6, IL-1β, Nox2 and Nox4, through both canonical pTyr-Stat3 transcription, and through noncanonical Stat3 NFκB transcription. Here, primary mouse cultures can be prepared on coverslip dishes as described and treated with IL-6 (10 ng/ml and 100 ng/ml) or a vehicle controls (media), daily for 4 days. Bafilomycin (100 nM) can be included in some dishes as a positive control for direct v-ATPase inhibition. Cultures can be fixed with 4% paraformaldehyde (PFA), and immunostained. Based on the data, accumulation of large lamp1 and p62-positive lysosomes in IL-6 and BAF treated cells can be observed. To then assess the role of redox effects on the v-ATPase, cultures can be co-treated with one of three antioxidants, TEMPOL (general radical scavenging), the C3 compound (catalytic superoxide dismutase, to reduce Nox-derived superoxide, regardless of isoform(s) which are contributing), and N-acetyl cysteine (to increase glutathione levels). When the v-ATPase is inhibited through its redox site, antioxidant treatment can prevent accumulation of undigested contents (p62, lamp1), and prevent enlargement of lysosomes. […]

Nox2, Nox4 and p22phox = experiment: Nox induction in brain of mice injected with IL-6 (qRT-PCR, Western blot, immunostaining); type: in vivo, mouse; conditions: 4 month and 24 month-old C57Bl/6 mice, IL-6 5 μg/kg on two consecutive days
Protocol: These are the first data showing that inhibiting Nox activity can improve lysosome function in brain in vivo. […] Based on the observation herein that IL-6 is responsible for Nox2 induction in aging brain, and thus here, it is determined whether IL-6 mediates lysosome dysfunction. […] have a targeted deletion of Stat3 in neurons, and pharmacological inhibition of Nox-derived superoxide production can be used to test each of these possibilities. […] This increase occurred not only in microglia, but cortical and hippocampal neurons, and in synaptosomes. To confirm anti-Nox2 Ab specificity, slices and tissue from gp91phox−/− (Nox2−/−) mice were always included as controls.

COc1cc(C(C)=O)ccc1O [apocynin]
cargo clearance ([1]; apocynin 100 mg/kg/day, as in FIG. 5): improved cargo clearance
accumulation of p62 aggregates (number and size of p62-positive aggregates) in hippocampus ([1]; female C57BL6 mice, in drinking water from 12-17 mos of age, apocynin 50 mg/kg/day, C3 1 mg/kg/day): reduction of both the number, and size of p62-positive aggregates; also recorded: reduces hippocampal aggregates; also recorded: lessons the accumulation of p62 aggregates
undegraded lysosome material throughout brain ([1]; mice treated with apocynin (FIG. 5)): robust and highly significant reduction in undegraded lysosome material throughout brain
size of lysosomes in neurons (lamp1 and CatD immunostaining) [2]: significant normalization (reduction) of intracellular lysosome size; also recorded: significantly reduced the size of lysosomes

CO/C1=C\C(C)=C\[C@@H](C)[C@@H](O)[C@@H](C)C/C(C)=C/C=C/[C@H](OC)[C@@H]([C@@H](C)[C@@H](O)[C@H](C)[C@@]2(O)C[C@@H](O)[C@H](C)[C@@H](C(C)C)O2)OC1=O [bafilomycin]
lysosome size (lysosomal v-ATPase): rapidly increases lysosome size within hours

IL-6: inflammatory cytokine interleukin-6
lysosome degradation of proteins, including p62 (mouse cortical cultures): impairs lysosome degradation of proteins
induction of Nox2, Nox4 and p22phox in brain (Nox2, Nox4 and p22phox): induction of Nox2, Nox4 and p22phox
